Measurements published in patent US20180110754A1, “CENICRIVIROC FOR THE TREATMENT OF FIBROSIS” (Tobira Therapeutics, Inc., priority 2015, published 2018).
Where two headings read alike, the source gives them in different places.

Columns and labels:
[1] = test system: HIV-1; assay: Study 202 Phase 2b: virologic response (HIV-1 RNA <50 copies/mL, FDA Snapshot); type: in vivo, human
Source text: (§1) Subjects with a history of HIV-2, hepatitis B and/or C, cirrhosis of the liver or any known active or chronic active liver disease were excluded from the study.
The primary efficacy endpoint was virologic response at Week 24, defined as HIV-1 RNA<50 copies/mL using the FDA Snapshot Algorithm.

[2] = Study 202: ECG abnormalities and vital signs; type: in vivo, human; conditions: for HR Abnormally high, n subjects / HR Abnormally low, n subjects / PR Abnormally high, n subjects / QRS Abnormally high, n subjects / QRS Abnormally low, n subjects / QTcB interval Borderline (450-480 ms), n subjects / QTcB interval Increase by >30-60 ms, n subjects / QTcB interval Increase by >60 ms, n subjects / QTcB interval Pathologically prolonged, n subjects / QTcB interval Prolonged, n subjects / QTcF interval Borderline (450-480 ms), n subjects / QTcF interval Increase by >30-60 ms, n subjects / QTcF interval Increase by >60 ms, n subjects / QTcF interval Pathologically prolonged, n subjects / QTcF interval Prolonged, n subjects: through Week 48
[3] = for SAE: Suicidal ideation, n subjects: through Week 48
Source text: as §1
Most AEs were mild or moderate (Grade 1 or Grade 2). […] None of the Grade ≥3 AEs (preferred terms) were reported in more than 1 subject.

[4] = All CVC (N = 115), EFV (N = 28)

In the case of `CCCCOCCOc1ccc(-c2ccc3c(c2)/C=C(/C(=O)Nc2ccc([S@@+]([O-])Cc4cncn4CCC)cc2)CCCN3CC(C)C)cc1` [CVC, (S)-8-[4-(2-Butoxyethoxy)phenyl]-1-isobutyl-N-(4-{[(1-propyl-1H-imidazol-5-yl)methyl]sulfinyl}phenyl)-1,2,3,4-tetrahydro-1-benzazocine-5-carboxamide], the “Virologic success (HIV-1 RNA <50 copies/mL)” value (from here on “Virologic success”) ([1]; CVC 100 mg + FTC/TDF, Week 24) was 76%, the “Virologic success” value ([1]; CVC 100 mg + FTC/TDF, Week 48) was 68% and the “Virologic success” value ([1]; CVC 200 mg + FTC/TDF, Week 24) was 73%. The “Virologic success” value ([1]; CVC 200 mg + FTC/TDF, Week 48) was 64%, the “HR Abnormally high, n subjects” value [2, 4] was 0 and the “HR Abnormally low, n subjects” value [2, 4] was 0. The “PR Abnormally high, n subjects” value [2, 4] was 3, the “QRS Abnormally high, n subjects” value [2, 4] was 1 and the “QRS Abnormally low, n subjects” value [2, 4] was 0. The “QTcB interval Borderline (450-480 ms), n subjects” value (shortened to “QTcB interval Borderline”) [2, 4] was 6, the “QTcB interval Increase by >30-60 ms, n subjects” value [2, 4] was 9 and the “QTcB interval Increase by >60 ms, n subjects” value [2, 4] was 1. For the same compound, the “QTcB interval Pathologically prolonged, n subjects” value [2, 4] was 0, the “QTcB interval Prolonged, n subjects” value [2, 4] was 0 and the “QTcF interval Borderline (450-480 ms), n subjects” value (“QTcF interval Borderline” below) [2, 4] was 2. For the same compound, the “QTcF interval Increase by >30-60 ms, n subjects” value [2, 4] was 7, the “QTcF interval Increase by >60 ms, n subjects” value [2, 4] was 1 and the “QTcF interval Pathologically prolonged, n subjects” value [2, 4] was 0. The “QTcF interval Prolonged, n subjects” value [2, 4] was 0, the “HR Abnormally high, n subjects” value ([2]; CVC 100 mg (N = 58)) was 0 and the “HR Abnormally low, n subjects” value ([2]; CVC 100 mg (N = 58)) was 0. For the same compound, the “PR Abnormally high, n subjects” value ([2]; CVC 100 mg (N = 58)) was 2, the “QRS Abnormally high, n subjects” value ([2]; CVC 100 mg (N = 58)) was 1 and the “QRS Abnormally low, n subjects” value ([2]; CVC 100 mg (N = 58)) was 0. The “QTcB interval Borderline” value ([2]; CVC 100 mg (N = 58)) was 4, the “QTcB interval Increase by >30-60 ms, n subjects” value ([2]; CVC 100 mg (N = 58)) was 6 and the “QTcB interval Increase by >60 ms, n subjects” value ([2]; CVC 100 mg (N = 58)) was 1. The “QTcB interval Pathologically prolonged, n subjects” value ([2]; CVC 100 mg (N = 58)) was 0, the “QTcB interval Prolonged, n subjects” value ([2]; CVC 100 mg (N = 58)) was 0 and the “QTcF interval Borderline” value ([2]; CVC 100 mg (N = 58)) was 1. The “QTcF interval Increase by >30-60 ms, n subjects” value ([2]; CVC 100 mg (N = 58)) was 4, the “QTcF interval Increase by >60 ms, n subjects” value ([2]; CVC 100 mg (N = 58)) was 1 and the “QTcF interval Pathologically prolonged, n subjects” value ([2]; CVC 100 mg (N = 58)) was 0. The “QTcF interval Prolonged, n subjects” value ([2]; CVC 100 mg (N = 58)) was 0, the “Subjects with QTc increase of >60 msec” value ([2]; CVC 100 mg arm) was 1 subject and the “HR Abnormally high, n subjects” value ([2]; CVC 200 mg (N = 57)) was 0. For the same compound, the “HR Abnormally low, n subjects” value ([2]; CVC 200 mg (N = 57)) was 0, the “PR Abnormally high, n subjects” value ([2]; CVC 200 mg (N = 57)) was 1 (2%) and the “QRS Abnormally high, n subjects” value ([2]; CVC 200 mg (N = 57)) was 0. The “QRS Abnormally low, n subjects” value ([2]; CVC 200 mg (N = 57)) was 0, the “QTcB interval Borderline” value ([2]; CVC 200 mg (N = 57)) was 2 (4%) and the “QTcB interval Increase by >30-60 ms, n subjects” value ([2]; CVC 200 mg (N = 57)) was 3 (6%). The “QTcB interval Increase by >60 ms, n subjects” value ([2]; CVC 200 mg (N = 57)) was 0, the “QTcB interval Pathologically prolonged, n subjects” value ([2]; CVC 200 mg (N = 57)) was 0 and the “QTcB interval Prolonged, n subjects” value ([2]; CVC 200 mg (N = 57)) was 0. For the same compound, the “QTcF interval Borderline” value ([2]; CVC 200 mg (N = 57)) was 1 (2%), the “QTcF interval Increase by >30-60 ms, n subjects” value ([2]; CVC 200 mg (N = 57)) was 3 (6%) and the “QTcF interval Increase by >60 ms, n subjects” value ([2]; CVC 200 mg (N = 57)) was 0. For the same compound, the “QTcF interval Pathologically prolonged, n subjects” value ([2]; CVC 200 mg (N = 57)) was 0, the “QTcF interval Prolonged, n subjects” value ([2]; CVC 200 mg (N = 57)) was 0 and the Deaths ([3]; All CVC (N = 115)) was 0 n. For the same compound, the “SAE: Suicidal ideation, n subjects” value [3, 4] was 0, the “Grade 3 or 4 AE: Suicidal ideation, n subjects” value ([3]; All CVC (N = 115), EFV (N = 28; Grade 4 event)) was 0 and the “Any AE, n subjects” value ([3]; CVC 100 mg (N = 58)) was 51. The “Any Grade 3 AE, n subjects” value ([3]; CVC 100 mg (N = 58)) was 2, the “Any Grade 4 AE, n subjects” value ([3]; CVC 100 mg (N = 58)) was 0 and the Deaths ([3]; CVC 100 mg (N = 58)) was 0 n. For the same compound, the “Grade 3 or 4 AE: Abdominal pain, n subjects” value ([3]; CVC 100 mg (N = 58)) was 1, the “Grade 3 or 4 AE: Blindness unilateral, n subjects” value ([3]; CVC 100 mg (N = 58)) was 0 and the “Grade 3 or 4 AE: Blood creatine phosphokinase increased, n subjects” value ([3]; CVC 100 mg (N = 58)) was 0. For the same compound, the “Grade 3 or 4 AE: Cardiac disorders, n subjects” value ([3]; CVC 100 mg (N = 58)) was 1, the “Grade 3 or 4 AE: Corneal infection, n subjects” value ([3]; CVC 100 mg (N = 58)) was 0 and the “Grade 3 or 4 AE: Suicidal ideation, n subjects” value ([3]; CVC 100 mg (N = 58)) was 0. For the same compound, the “SAE: Suicidal ideation, n subjects” value ([3]; CVC 100 mg (N = 58)) was 0, the “Any AE, n subjects” value ([3]; CVC 200 mg (N = 57)) was 48 and the “Any Grade 3 AE, n subjects” value ([3]; CVC 200 mg (N = 57)) was 3. For the same compound, the “Any Grade 4 AE, n subjects” value ([3]; CVC 200 mg (N = 57)) was 0, the Deaths ([3]; CVC 200 mg (N = 57)) was 0 n and the “Grade 3 or 4 AE: Abdominal pain, n subjects” value ([3]; CVC 200 mg (N = 57)) was 0. For the same compound, the “Grade 3 or 4 AE: Blindness unilateral, n subjects” value ([3]; CVC 200 mg (N = 57)) was 1, the “Grade 3 or 4 AE: Blood creatine phosphokinase increased, n subjects” value ([3]; CVC 200 mg (N = 57)) was 1 and the “Grade 3 or 4 AE: Cardiac disorders, n subjects” value ([3]; CVC 200 mg (N = 57)) was 0. For the same compound, the “Grade 3 or 4 AE: Corneal infection, n subjects” value ([3]; CVC 200 mg (N = 57)) was 1.
